Source: patent publication US11229662B2, “Compositions and methods for the treatment of aberrant angiogenesis” (The Schepens Eye Research Institute, Inc., priority 2016, dated 2022)
“Also recorded” adds a separate entry of the source.

Columns and labels:
[1] = HIV treatment trial, Haubrich et al. (1995); cited from earlier work
HRMEC [2] = assay: Tube forming assay; format: cell-based, human
Protocol: HRMEC were treated overnight with 75 μM Ro5-3335 or DMSO before plating 20000 cells onto wells pre-coated with basement membrane extract (Trevigen). Cells were imaged six h after plating and tube formation was quantified using the Angiogenesis Analyzer plugin for ImageJ.

C57BL/6J mice with OIR = assay: Oxygen-induced retinopathy (OIR) mouse model, retinal flat mounts; format: in vivo; settings: P17
Protocol: OIR was induced in wild-type C57BL/6J mice as previously described (Smith L E et al., (1994) Invest Ophthalmol Vis Sci 35(1):101-111). Intravitreal injections with 1 μL of 75 μM Ro5-3335 RUNX1 inhibitor or DMSO were performed on left eyes only at P13 and P15 under ketamine/xylazine anesthesia. Pups were euthanized at P17 and eyes were collected, fixed in 4% paraformaldehyde, and used for retinal flat mounts (nvehicle=7; nRo5-3335=9). Avascular and neovascular areas were quantified using Photoshop as previously described (Connor H M et al., (2009) Nature Protocols 4(11):1565-1573).

RUNX1 protein = assay: Western blot of RUNX1 protein; format: cell-based, human; settings: 72 hours
Protocol: FIG. 13 is an image showing that a commercially available small molecule PIM3 inhibitor (PIM3 kinase inhibitor VII from EMD Millipore) reduced total RUNX1 protein levels in primary culture retinal endothelial cells in normal and high glucose conditions. Human microvascular retinal endothelial cells were cultured in EGM-2 supplemented with different concentrations of D-glucose for 72 hours in the presence of PIM3 inhibitor (PIM3 kinase inhibitor VII from EMD Millipore, Cat No. 526526, 0.05 μM) or vehicle (DMSO). After harvest, proteins were extracted using RIPA buffer and analyzed by western blot. RUNX1 was detected using antibodies from Santacruz (sc-365644). β-actin was used as a loading control.
FIG. 19 is set of images showing that gamma-secretase inhibition using Compound E small molecule (100 nM) reduces the expression of RUNX1 in primary culture human microvascular endothelial cells. […]
Western Blot Analysis: Cells were lysed using RIPA buffer (Cell Signaling Technology (CST)). […] Immunoreactive bands were visualized using the Odyssey Infrared Imaging System and band intensities normalized to β-actin were quantified using Image Studio version 2.1 (LI-COR).

HRMEC [3] = assay: Scratch-wound migration assay; format: cell-based, human; settings: for wound closure (scratch assay): siRNA knockdown of RUNX1, 0-12 h
Protocol: (§1) FVMs were collected and CD31+ cells were isolated as previously described [Kim L A, et al. (2015) Mol Vis 21:673-687]. RNA-sequencing was performed using an Illumina HiSeq 2000 (Illumina Inc.), aligned with TopHat (Trapnell et al. (2009) Bioinformatics 25(9):1105-1111], and analyzed using Partek Flow, CuffLinks, EdgeR, and DESeq2. A mixed model ANOVA was used with a threshold false discovery rate (FDR) of <0.05 and fold change >±2 for significance. Gene Ontology was determined using the Database for Annotation, Visualization, and Integrated Discovery (DAVID). […] FVMs and cells were immunostained with standard protocols for paraffin embedded samples.
Migration was assessed with the scratch-wound assay (Liang C C et al. (2007) Nature Protocols 2(2):329-333). One scratch was generated per well and imaged on an EVOS® imaging system every three hours for 12 h. Images were analyzed with the TScratch Matlab module (Geback et al. (2009) Biotechniques 46(4):265-274).

RUNX1 = assay: qRT-PCR of RUNX1 expression; format: cell-based, human
Protocol: as §1
(§2) siRNA ([…]) (Integrated DNA Technologies; sequences in Table 4) was transfected for 6-8 h using DharmaFECT 1 (GE Life Sciences—Dharmacon) in Opti-MEM (Life Technologies).
(§3) RNA was extracted using RNeasy Mini Kits (Qiagen). Primers were purchased from Integrated DNA Technologies for 200 candidate genes (Table 4). Genes were excluded from further analysis if there was no amplification or amplification was outside the linear range. […] Fluorescent intensities were normalized to spike-in controls (ERCC RNA Spike-In Mix; Life Technologies), HPRT1, and B2M.

HES1 = assay: qRT-PCR of HES1 expression; format: cell-based, human; settings: 100 nM; 72 hours; 5 mM and 30 mM D-glucose; vs DMSO
Protocol: FIG. 18 is a graph showing that gamma-secretase inhibition using Compound E small molecule (100 nM) reduced the expression of HES1, a canonical downstream target for Notch activity and RUNX1 in primary culture human microvascular endothelial cells. Reduction of HES1 and RUNX1 expression was effective under normal glucose (5 mM D-glucose and high glucose 30 mM D-glucose). Cells were incubated with Compound E or DMSO vehicle control in different glucose concentrations for 72 hours before harvest followed by qRT-PCR for each gene. HPRT1 expression was used as control.
as §3

HRMEC [4] = assay: Ki67 proliferation assay; format: cell-based, human
Protocol: FVMs and cells were incubated with mouse anti-RUNX1 (Santa Cruz) followed by biotinylated secondary antibody (Vector Laboratories), horseradish peroxidase (HRP)-labeled avidin (PerkinElmer), tyramide signal amplification (TSA, PerkinElmer), Vector Red chromogenic substrate (Vector Laboratories) and Gill no. 3 hematoxylin counterstain (Sigma-Aldrich). Immunofluorescent staining for CD31 (mouse anti-CD31; Dako) and Ki67 (rabbit anti-Ki67; Novus Biologicals) was performed as previously described (Kim L A, et al. (2015) Mol Vis 21:673-687). The number of Ki67 positive nuclei was averaged for three fields of view per sample at 20× magnification.
HRMEC were probed for proliferation with the Ki67 marker as follows: cells were permeabilized with 0.5% Triton X-100 in PBS for 5 min, blocked with 5% goat serum in PBS for 2 h at room temperature, incubated with primary antibody overnight at 4° C. (rabbit anti-Ki67 1:50; Novus Biologicals), and incubated with secondary for 2 h at room temperature (goat anti-rabbit Alexa Fluor 594 1:250; Life Technologies Corp.). Samples were imaged using an EVOS® imaging system. The number of Ki67 positive nuclei was averaged for three fields of view per sample at 20× magnification.

RUNX3 = assay: qRT-PCR of RUNX3 expression; format: cell-based, human; settings: RUNX1 siRNA; 48 hours post-transfection
Protocol: as §2, §3

IGFBP3 = assay: qRT-PCR of IGFBP3 expression; format: cell-based, human; settings: RUNX1 siRNA knockdown
Protocol: as §2, §3
HRMEC were transfected with pCMV5-AML1c (Addgene Plasmid #12426) (the plasmid contains the sequence of RUNX1 encoding 480 amino acids; in the sequences listed herein this corresponds to RUNX1g) or pCMV5 empty vector using the HCAEC Nucleofector kit (VPB-1001; Program S-005) following manufacturer's optimized protocol.

RUNX2 = assay: qRT-PCR of RUNX2 expression; format: cell-based, human; settings: RUNX1 siRNA; 48 hours post-transfection
Protocol: as §2, §3

[5] = HRMEC treated overnight with 75 μM Ro5-3335, imaged 6 h after plating, vs DMSO
[6] = intravitreal 75 μM at P13 and P15, vs vehicle

Compound: CNC1=Nc2ccc(Cl)cc2C(c2ccc[nH]2)=NC1 [Ro24-7429]
- safety in clinical trial [1]: safe

Compound: O=C1CN=C(c2ccc[nH]2)c2cc(Cl)ccc2N1 [Ro5-3335]
- meshes reduction (HRMEC [2]; [5]): 46%
- nodes reduction (HRMEC [2]; [5]): 35%
- total tube length reduction (HRMEC [2]; [5]): 18%
- tube forming capacity (HRMEC [2]; overnight treatment, 6 h after plating, vs vehicle treated cells): reduced tube forming capacity
- avascular area (extent of vaso-obliteration) (C57BL/6J mice with OIR; [6]): no significant change; also recorded: non-significant downward trend
- neovascularization / neovascular tufts (C57BL/6J mice with OIR; [6]): significant reduction
- reduction in neovascularization (C57BL/6J mice with OIR; intravitreal 1 μL of 75 μM at P13 and P15, vs vehicle treated eyes): 50%

Compound: CC/C(=N\NC(=O)c1ccnc(NCCCN2CCOCC2)c1)c1ccc(Cl)cc1O [PIM3 kinase inhibitor VII, N′-(1-(4-Chloro-2-hydroxyphenyl)propylidene)-2-((3-morpholinopropyl)amino)isonicotinohydrazide]
- total RUNX1 protein levels (RUNX1 protein; 0.05 μM, normal and high glucose, vs DMSO): reduced

Compound: siRNA-2: second RUNX1 siRNA; probably duplex HSC.RNAI.N001001890.12.1 (SEQ ID NO: 249/250) (chain 1 ACUAGAUGAUCAGACCAAGCCCGGG; chain 2 CCCGGGCUUGGUCUGAUCAUCUAGUUU; listed as RNA, chemistry not fully specified)
- wound closure (scratch assay) (HRMEC [3]): functional inhibition

Compound: C[C@H](NC(=O)Cc1cc(F)cc(F)c1)C(=O)N[C@H]1N=C(c2ccccc2)c2ccccc2N(C)C1=O [Compound E]
- RUNX1 expression (western blot) (RUNX1 protein; 100 nM, 5 mM and 30 mM D-glucose): reduces
- RUNX1 expression (qRT-PCR) (RUNX1; 100 nM, 72 hours, 5 mM and 30 mM D-glucose, vs DMSO): reduced
- HES1 expression (HES1): reduced

Compound: N[C@@H]1CCCN(c2c(/C=C3\SC(=O)NC3=O)cccc2-c2ccccc2)C1 [AZD1208]
- reduction in cell migration (HRMEC [4]; treated 48 hours before proliferation assay, Ki67 marker, vs DMSO control): 43%

Compound: RUNX1 siRNA: siRNA against human RUNX1, Integrated DNA Technologies; duplex hs.Ri.RUNX1.13.3 (SEQ ID NO: 247/248) (chain 1 CCUUUCAUGUUAAUCAAACAAGUGA; chain 2 UCACUUGUUUGAUUAACAUGAAAGGGA; listed as RNA, chemistry not fully specified)
- RUNX3 RNA expression (RUNX3): did not significantly affect; also recorded: no significant changes
- reduction of RUNX1 RNA expression (RUNX1; RUNX1 siRNA, 48 hours post-transfection): 60%
- decrease in wound closure rate (HRMEC [3]; RUNX1 siRNA knockdown, monitored 12 h, vs controls): 60%
- wound closure (scratch assay) (HRMEC [3]): effectively inhibits wound closure
- increase in IGFBP3 mRNA expression (IGFBP3): 330%
- cell number and proliferative capacity (Ki67 staining) (HRMEC [4]; 48 h post transfection, vs transfection reagent alone or scramble siRNA): significant reduction
- fewer Ki67 positive cells (HRMEC [4]; RUNX1 siRNA transfected EC vs controls): 60%
- RUNX2 RNA expression (RUNX2): did not significantly affect; also recorded: no significant changes
